For assay [1], the system named is human endometrial adenocarcinoma cells (Ishikawa). The assay is described as follows: Estrogen bioassay: induction of AlkP in Ishikawa cells. The format is cell-based.
Assay [2] has as its system ER. Conditions: cited from earlier work.
Assay [3] relates to ER. Conditions: triphenyl acrylonitriles; cited from earlier work.

For the compound `COc1ccc([C@H]2C[C@]3(C)[C@@H](O)CC[C@H]3[C@@H]3CCc4cc(O)ccc4[C@H]32)cc1` [Compound 5, 11β-(4-Methoxyphenyl)estra-1,3,5(10)-trien-3,17β-diol], the Max stim entry in assay [1] (maximal stimulation of AlkP in Ishikawa cells, printed in the RSA column) is listed as “Max stim = 35–45%”. The term EC50 denotes the concentration at which the effect is half-maximal. On to `C[C@]12CC[C@@H]3c4ccc(O)cc4CC[C@H]3[C@@H]1CC[C@@H]2O` [Compound E2, estradiol], for which, in assay [1] (Homo sapiens, Ishikawa, read-out: EC50 of E2), the EC50 is around 0.2 nM. Consider `CC/C(=C(\c1ccccc1)c1ccc(OCCN(C)C)cc1)c1ccccc1` [tamoxifen], for which the “affinity (RBA)” value in the assay with ER [2] was ~ 1%. For `COc1ccc(C(=C(C#N)c2ccc(O)cc2)c2ccc(O)cc2)cc1`, the efficacy result in the assay with ER [3] is on record as “‘partial’ agonist responses”. Turning to `N#CC(=C(c1ccc(O)cc1)c1ccc(O)cc1)c1ccc(O)cc1` [α,α′,β-tris(4-hydroxyphenyl) compound], in the assay with ER [3], the efficacy result is “full agonist”.

These data come from publication PMC3581310 (Bioorganic & medicinal chemistry, 2012).
